# Measurements taken from the METLIN SMRT retention time set (Domingo-Almenara et al. 2019).
# Test: gradient 5% acetonitrile 3 min, to 50% in 2 min, to 85% in 15 min, held 3 min, 100 µL/min
# Conditions: column: Zorbax Extend-C18 2.1 x 50 mm; eluents: water / acetonitrile, 0.1% formic acid
# Summary of the method: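 Each retention time is based on an adduct peak selected computationally and verified by manual inspection. Measurements used HPLC–quadrupole time-of-flight mass spectrometry in positive and negative ionization mode on mixtures of ~100 pure standards. Chromatography ran on a Zorbax Extend-C18 column (2.1 × 50 mm, 1.8 μm) at 100 μL/min with water and acetonitrile, each containing 0.1% formic acid, and dead and dwell volumes of 40 μL and 900 μL.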
row,Compound,RP-LC retention time
1,COc1cccc(CCC(=O)N2CCc3cc(-c4csc(C)n4)ccc32)c1,1040 s
2,O=C(CCc1nc2ccccc2n(CC(=O)Nc2cc(F)cc(F)c2)c1=O)NCc1ccccc1,890 s
3,O=C(c1ccc2c(c1)CCCN2S(=O)(=O)c1ccccc1)N1CCCC1,852 s
4,COc1ccc(-c2nnc(-c3cccc(S(=O)(=O)N(C)C)c3)o2)cc1,908 s
5,Cc1ccc(-c2nnc(-c3ccccc3)o2)cc1S(=O)(=O)N1CCC(C)CC1,1210 s
6,Cc1cccc(-c2nnc(-c3nc(NCCCN4CCCC4=O)c4ccccc4n3)o2)c1,814 s
7,CCn1cc(CCN2CCC(C(=O)N3CCOCC3)CC2)c2cccnc21,566 s
8,Cc1ccccc1S(=O)(=O)N1CC[C@@H]2CN(Cc3cccnc3)[C@@H]2C1,598 s
9,c1cc(-c2nc(-c3ccc4c(c3)ncn4CCN3CCCCC3)no2)co1,598 s
10,COc1ccc(-c2nc(C3CC(=O)N(Cc4ccccc4)C3)no2)cc1 (stereo unspecified),946 s
11,COc1ccc(C(=O)N2CCCn3cc(-c4ccccc4)nc32)cn1,532 s
12,Cc1cc(F)ccc1S(=O)(=O)NCCc1ccsc1,900 s
13,CN1C(=O)c2cccn2CC1CNC(=O)c1nccn1C (stereo unspecified),573 s
14,COc1cc(Cl)c(NS(=O)(=O)c2cc(-c3c(C)noc3NC(C)=O)ccc2OC)c(OC)c1,784 s
15,COc1cc(OC)c(OC)cc1CN(C)CCc1ccccn1,593 s
16,COc1ccc(OC)c(S(=O)(=O)N2CCc3nc(-c4ccc(Cl)cc4)ncc3C2)c1,1160 s
17,COc1cccc(-c2nc(-c3ccc(NS(=O)(=O)c4cccs4)cc3)no2)c1OC,1040 s
18,CCCCC(=O)N(Cc1ccc(-c2ccccc2-c2nn[nH]n2)cc1)[C@H](C(=O)O)C(C)C,865 s
19,CC(O)c1nc2ccccc2n1CC(=O)N(c1ccccc1)C(C)C (stereo unspecified),647 s
20,CCOC(=O)CCC(=O)N1CC(c2nc(C)no2)C1,603 s

row,Compound,RP-LC retention time
1,CCOC(=O)c1cc(S(=O)(=O)N2CCCC2C(=O)Nc2ccc(C)cc2C)cn1C (stereo unspecified),957 s
2,COc1ccc(-n2ccn(CC(=O)Nc3ccc(OC)c(Cl)c3)c2=O)cc1,734 s
3,O=C(Nc1cccc(-c2ccc3nnc(-c4cccs4)n3n2)c1)C1CCCC1,792 s
4,Cn1c(=O)c(N2CCN(C(=O)c3ccc(Cl)cc3)CC2)nc2ccncc21,560 s
5,CCCCn1cc(S(=O)(=O)Nc2cccc(F)c2)c2cccnc21,936 s
6,O=C(Nc1ncc(-c2ccccc2)s1)c1ccccc1Br,936 s
7,C=CCNC(=O)N1CCCN(C2=NS(=O)(=O)C(c3ccc(CC)cc3)=C2C)CC1,790 s
8,O=C(c1ccoc1)N1CC(Oc2ccc(-c3nc(-c4ccccc4)no3)cc2)C1,1040 s
9,O=C(NCc1nnnn1-c1ccc(F)c(F)c1)c1cc(=O)c2ccccc2o1,707 s
10,Cc1ccccc1-c1cn2ccn(-c3cccc(Cl)c3)c(=O)c2n1,883 s
11,COCc1c(C(=O)O)nnn1-c1cccc(OC)c1,668 s
12,CCOC(=O)COc1cc(-c2ccccc2)nc2ccc(NC(=O)C3CCC3)cc12,780 s
13,COc1ccc(-c2noc(CN3N=NC4C(=O)N(c5cccc(Cl)c5)C(=O)C43)n2)c(OC)c1 (stereo unspecified),912 s
14,O=C(c1cn2ccnc(-c3ccccc3)c2n1)N1CCN(c2ncccn2)CC1,702 s
15,COc1ccc(OC)c(-c2cc(C(=O)NCc3nc(C)no3)[nH]n2)c1,662 s
16,CSc1ccc(CN2CC(c3nc(C)no3)C2)cc1,530 s
17,COc1ccc(C)cc1NC(=O)Cc1csc2nc(-c3cccc(Br)c3)cn12,1060 s
18,O=C(c1ccc2nsnc2c1)N1CCN(S(=O)(=O)C2CC2)CC1,657 s
19,CCOC(=O)c1[nH]c(C)c(C(=O)C(C)N(C(=O)c2cccc(F)c2)C(C)C)c1C (stereo unspecified),883 s
20,Cc1ccc(C)c(C(=O)CC2(O)C(=O)N(C)c3ccccc32)c1 (stereo unspecified),818 s

# The next lines start with the values.
row,RP-LC retention time,Compound
1,864 s,CCCc1nc(-c2c(C)cc(C)nc2NC(=O)c2ccc(F)cc2)no1
2,650 s,Cc1noc(-c2cc(=O)n(CC(=O)Nc3ccc(N(C)C)cc3)c3ccccc23)n1
3,945 s,CCOC(=O)c1c(C)n(C)c2c1cc(O)c1ccccc12
4,708 s,CC(C(=O)N1Cc2c(C(=O)NC3CC3)nn(C)c2C1)c1ccccc1 (stereo unspecified)
5,912 s,O=C(Nc1cccc(OCc2nnc(-c3ccccc3)o2)c1)c1cncc(Br)c1
6,863 s,COc1ccc(CNC(=O)c2ccc3c(c2)N(C)C(=O)c2ccccc2O3)cc1
7,939 s,COc1ccccc1-c1noc(C2CCCN2C(=O)COc2ccccc2C)n1 (stereo unspecified)
8,736 s,COc1ccc(N2CCN(c3ncccc3-c3nc(C)no3)CC2)cc1
9,696 s,COc1ccc(CN2C(=O)COC[C@H]2C(=O)NCC2CC2)c(OC)c1
10,635 s,Cc1cc(C)c(CN2CC(CNC(=O)N3CCCC3)C3(CCOCC3)C2)c(C)c1 (stereo unspecified)
11,896 s,CC1CCC(NC(=O)C2CCN(S(=O)(=O)c3ccc4c(c3)sc(=O)n4C)CC2)CC1 (stereo unspecified)
12,1010 s,CC(Oc1cccc(Cl)c1)c1nc(-c2ccc3c(c2)nnn3CCC(=O)N2CCCC2)no1 (stereo unspecified)
13,706 s,O=C(c1cccc2[nH]cc(CN3CCCC3)c12)N1CCN(c2ccccc2)CC1
14,895 s,CCN1c2cc(Cl)ccc2C(=O)NC12CCN(C(=O)Nc1ccc(OC)cc1)CC2
15,668 s,CC(C)n1c(N2CCCN(C(=O)c3cccnc3)CC2)cc(=O)n(C(C)C)c1=O
16,870 s,O=C(C1CC1)N1CCc2sc(S(=O)(=O)Nc3cccc(Cl)c3F)cc2C1
17,674 s,CCN(CC)c1ncnc2c(-c3ccccc3)cn(CC(=O)N3CCCC3)c12
18,616 s,CCc1nc(N)n(CC(=O)NCc2ccccc2Cl)c(=O)c1C
19,848 s,O=C(NCC1CC1)c1cn(-c2ncccc2-c2nc(-c3ccccc3)no2)cn1
20,630 s,O=C(CN1C(=O)CCC1=O)Nc1ccc2c(c1)CN(C(=O)c1cccs1)CC2
21,632 s,CSc1cccc(NC(=O)N2CCc3nc(CNC(=O)C4CCC4)n(C)c3C2)c1
22,550 s,COc1ccc(F)cc1S(=O)(=O)N1CCN(C2CCN(C)C2=O)CC1 (stereo unspecified)
23,706 s,O=C(Cn1c(=O)c2cccn2c2ccc(F)cc21)N1CCN(C(=O)c2ccco2)CC1
24,726 s,CCCN(C)c1nccn2c(=O)n(CC(=O)Nc3ccc(C)c(F)c3)nc12
25,632 s,O=S(=O)(c1ccc(F)c(Cl)c1)N1CCc2nc[nH]c2C1
26,646 s,CC(C)(C)NC(=O)N1CC(n2cc(C(=O)N3CCOCC3)nn2)C1
